One series concerns the target T1, Src (Homo sapiens, UniProt P12931).
T1 construct: purchased Merck-Millipore
The experiment in a line: Src enzymatic assay (ADP-Glo kinase assay). Conditions: for Ki: mean of at least three experiments, 100 μM ATP. The class given is biochemical. The protocol:
(§1) Src, Fyn, and Abl were purchased from Merck-Millipore. Reactions were performed according to the manufacturer’s instructions with minor modifications. All substrates were used at least at twice the concentration of apparent Km. In detail: Src reactions were performed using 500 μM Src-peptide (KVEKIGEGTYGVVYK), 100 μM ATP, and 0.00087% NP-40; Fyn reactions were performed using 360 μM Src-peptide (KVEKIGEGTYGVVYK), 200 μM ATP, and 0.0026% NP-40; Abl reactions were performed using 50 μM abltide (EAIYAAPFAKKK), 30 μM ATP, and 0.00087% NP-40. All reactions were performed using 10–50 ng of enzyme and 10% DMSO in 10 μL of kinase buffer (8 mM MOPS-NaOH pH7.0, 0.2 mM EDTA, 10 mM MgAc) at 30 °C for 10 min.
(§2) To avoid peptide adsorbing to the plastic surface, protein low-binding tubes were used. ADP-Glo kinase assay (Promega) was then used to detect kinase activity according to the manufacturer’s instructions with minor modifications. In detail, reactions were transferred to white 384 well-plates and stopped by adding 10 µL of ADP-Glo reagent (Promega) for 50 min at room temperature. A total of 20 μL of detection reagent (Promega) was then added for 30 min and the reaction read using a GloMax Discover microplate reader (Promega). Data were plotted using GraphPad Prism 5.0. IC50 values were obtained according to Equation (1):v = V/{1 + (I/IC50)} (1) where v is the measured reaction velocity, V is the apparent maximal velocity in the absence of inhibitor, I is the inhibitor concentration, and IC50 is the 50% inhibitory dose. Compounds tested were assumed to act as fully ATP-competitive inhibitors. Therefore, Ki values were calculated according to Equation (2):Ki = IC50/(1+ […]) (2) where Ki is the affinity of the inhibitor to the enzyme, S is the ATP concentration, and Km is the affinity of ATP calculated according to the Michaelis–Menten equation.

Another series has as its target Bcr-Abl. The arrangement: method as in PMID 23746084, PMID 28650650, PMID 25469771, PMID 21443205, PMID 17929792. As to conditions: in-house lead compounds, Figure 1; cited from earlier work.
For another series, the target named is T2, Abl (Homo sapiens, UniProt P00519).
T2 construct: purchased Merck-Millipore
The experiment in a line: Abl enzymatic assay (ADP-Glo kinase assay). The series is classed as biochemical. Conditions: for Ki: mean of at least three experiments, 30 μM ATP, read-out: Bcr-Abl Ki. As to the method: as §1, §2

The subject of the next series is osteosarcoma. Details: method as in PMID 17929792. As to conditions: cited from earlier work.
The test system of a further series is 32D-T315I CML cells. Conditions: mice inoculated with 32D-T315I CML cells; cited from earlier work.
In another series the test system is GBM. The arrangement: method as in PMID 28650650, PMID 25469771. Conditions: cited from earlier work.
The test system of another series is NB. Details: method as in PMID 28650650, PMID 25469771. Conditions: cited from earlier work.
The test system of series [1] is U251 cells. Briefly: MTS assay after ionizing radiation, U251. The class given is cell-based. Conditions: 1 µM pre-treatment 24 h, IR 10 Gy, 48 h after IR, not statistically significant. The protocol: (§3) To this aim, T98G and U251 cells were pre-incubated or not with SI388 for 24 h and then irradiated (10 Gy).
(§4) Cells were plated in 96 multiwells (1000 cells/well) in 100 µL of the complete medium. The following day, after 24 h of starvation, the cells were treated with DMSO, dasatinib or SI388 at different concentrations (10 nM, 1 µM, 25 µM). After 72 h, cells were treated with tetrazolium (Promega) for 1–2 h. The quantity of formazan product is directly proportional to the number of living cells in the culture. The plate is then read with a plate reader measuring the absorbance of 490 nm for the different conditions.

Series [2] has as its system U251 cells. Briefly: MTS cell viability assay, U251. As to conditions: 72 h, 10 nM, 1 µM, 25 µM. The series is classed as cell-based. As to the method: (§5) Next, the ability of SI388 to inhibit cell viability was evaluated using an MTS assay.
as §4

Series [3] deals with GBMSC83 cells. The experiment in a line: Cell death analysis, Annexin V-PI cytofluorimetry after IR, GBMSC83. Conditions: 1 µM pre-treatment 24 h, IR 10 Gy, 48 h after IR, vs control. The series is classed as cell-based. As to the method: GBMSC83 cells were pretreated with 1 µM SI388 or 1 µM DAS, or DMSO as a control, for 24 h and then irradiated (10 Gy). After 48 h from IR, cytofluorimetric analysis of AnnexinV-PI staining was performed.
1 × 10^6 cells were analyzed for cell death 48 h from ionizing radiation (10 Gy) upon staining with Annexin V-APC-propidium iodide (PI) kit, according to manufacturer instructions (eBioscience™ Annexin V apoptosis detection kits, ThermoFisher Scientific, Waltham, MA, USA). Unstained samples were used as the control. CytoFLEX S (Beckman Coulter, Milan, Italy) instrument was used to quantify the double staining. Quality control was evaluated using CytoFLEX Daily QC Fluorospheres (Beckman Coulter). CytExpert version 2.2 software (Beckman Coulter) was used to analyze FCS files. Dead cells were graphed as fold change to control conditions.

For series [4], the system named is Src phosphorylation on Tyr416 in U251 cells. Briefly: Immunoblotting of pY416-Src in U251 cells. The series is classed as cell-based. As to conditions: 10 nM and 1 µM, 24 h, vs DMSO. The protocol:
Dasatinib (Sigma Aldrich, DAS, Merck Millipore, Burlington, MA, USA), SI388 and SI83 were used at different concentration (10 nM, 1 µM or 25 µM) for 24 h upon serum deprivation. DMSO (Sigma Aldrich) was used as the control.
(§6) Cell extracts were prepared in RIPA (50 mM Tris-HCl pH 8.0, 150 mM NaCl, 1% NP40, 1 mM EGTA, 1 mM EDTA, 0.25% sodium deoxycholate) or IP buffer (50 mM Tris–HCl pH 7.5, 250 mM NaCl, 1% NP-40, 5 mM EDTA, 5 mM EGTA) supplemented with protease and phosphatase inhibitors (Roche Diagnostic, Mannheim, Germany). For immunoblotting, 25–30 µg of protein was separated by sodium dodecyl sulfate (SDS) polyacrylamide gel electrophoresis (PAGE), blotted onto nitrocellulose membrane, and detected with specific antibodies.

For series [5], the system named is Src phosphorylation on Tyr416 in GBMSC83 cells. The experiment in a line: Immunoblotting of pY416-Src in GBMSC83 cells. The series is classed as cell-based. As to conditions: 1 µM, 24 h. As to the method: as §6
Series [6] deals with U251 cells. Briefly: Clonogenic assay, U251. The class given is cell-based. Conditions: 10 nM, 1 µM, 25 µM for 24 h, colonies after 15 days. As to the method: (§7) To further characterize the ability of SI388 to inhibit tumor growth, we performed clonogenic assays using T98G and U251 cell lines. Cells were starved and treated for 24 h with increasing concentration (10 nM, 1 µM, and 25 µM) of SI388 or DAS. The ability of single cells to proliferate and produce colonies was evaluated after 15 days, both in control conditions (treated with DMSO) and after treatment with different Src inhibitors.
(§8) For colony formation, control and irradiated (5 Gy) cells were seeded at the concentration of 1000 cells/dish in 6-well culture plates and incubated at 37 °C, 5% CO2 for 10–15 days.
(§9) Crystal violet solution (10% (v/v) methanol and 0.5% Crystal Violet) was used to fix and stain colonies, upon 20 min incubation. The stained colonies (>50 cells) were counted under a microscope or using Image “Colonyarea” plugin. Data were expressed as the mean and SD of three independent experiments.

Series [7] has as its system T98G cells. The experiment in a line: MTS cell viability assay, T98G. The series is classed as cell-based. Conditions: 72 h, 10 nM, 1 µM, 25 µM. As to the method: as §5, §4
The target of a further series is T3, Fyn (Homo sapiens, UniProt P06241).
T3 construct: purchased Merck-Millipore
Briefly: Fyn enzymatic assay (ADP-Glo kinase assay). The class given is biochemical. Conditions: for Ki: mean of at least three experiments, 200 μM ATP. As to the method: as §1, §2

For series [8], the system named is GBMSC83 cells. The experiment in a line: Neurosphere formation, cell counting and sphere size, GBMSC83. The class given is cell-based. Conditions: 1 µM, 72 h, vs control. The protocol:
GBMSC83 cells were seeded at the density of 1 × 10^4 cells/well in a 96-well ultralow attachment plate, and the following day they were treated with SI388 1 µM or dasatinib 1 µM. After 72 h from treatment, cells were stained with Hoechst 33,342 (Thermo Fisher Scientific) and images were acquired with Fluorescence microscopy (ZEISS) and processed with Fiji version 2.3. Hoechst positive nuclei were counted by particle detection instrument of ComDet Plugin of Fiji. The bright fields were acquired and processed by Cell Profiler version 2.1.1 to measure spheres’ diameter and reported as the fold change from the control condition.

The subject of series [9] is T98G cells. The experiment in a line: Clonogenic assay, T98G. The series is classed as cell-based. Conditions: 10 nM, 1 µM, 25 µM for 24 h, colonies after 15 days. As to the method:
as §7, §8, §9

The subject of series [10] is T98G cells. Briefly: MTS assay after ionizing radiation, T98G. The series is classed as cell-based. As to conditions: 1 µM pre-treatment 24 h, IR 10 Gy, 48 h after IR, statistically significant. As to the method: as §3, §4

The source of these data is paper PMC10384936, “Identification and Biological Characterization of the Pyrazolo[3,4-d]pyrimidine Derivative SI388 Active as Src Inhibitor” (Pharmaceuticals, 2023).

T3 sequence (P06241 whole entry, species assumed): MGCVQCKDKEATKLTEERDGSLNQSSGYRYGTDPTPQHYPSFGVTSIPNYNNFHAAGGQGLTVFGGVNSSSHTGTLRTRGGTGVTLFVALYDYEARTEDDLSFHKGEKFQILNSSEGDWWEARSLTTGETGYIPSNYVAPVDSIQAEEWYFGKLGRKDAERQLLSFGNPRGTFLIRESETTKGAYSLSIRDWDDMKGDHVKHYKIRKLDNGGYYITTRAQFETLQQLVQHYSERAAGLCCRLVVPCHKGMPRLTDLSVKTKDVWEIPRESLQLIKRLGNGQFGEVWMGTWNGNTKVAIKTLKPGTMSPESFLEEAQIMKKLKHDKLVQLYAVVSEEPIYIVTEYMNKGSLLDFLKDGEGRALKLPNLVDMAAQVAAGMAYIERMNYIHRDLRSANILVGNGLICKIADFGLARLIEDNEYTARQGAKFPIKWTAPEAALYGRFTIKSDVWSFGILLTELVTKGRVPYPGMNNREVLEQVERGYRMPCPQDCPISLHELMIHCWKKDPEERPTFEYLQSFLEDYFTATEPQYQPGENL
T1 sequence (P12931 whole entry, species assumed): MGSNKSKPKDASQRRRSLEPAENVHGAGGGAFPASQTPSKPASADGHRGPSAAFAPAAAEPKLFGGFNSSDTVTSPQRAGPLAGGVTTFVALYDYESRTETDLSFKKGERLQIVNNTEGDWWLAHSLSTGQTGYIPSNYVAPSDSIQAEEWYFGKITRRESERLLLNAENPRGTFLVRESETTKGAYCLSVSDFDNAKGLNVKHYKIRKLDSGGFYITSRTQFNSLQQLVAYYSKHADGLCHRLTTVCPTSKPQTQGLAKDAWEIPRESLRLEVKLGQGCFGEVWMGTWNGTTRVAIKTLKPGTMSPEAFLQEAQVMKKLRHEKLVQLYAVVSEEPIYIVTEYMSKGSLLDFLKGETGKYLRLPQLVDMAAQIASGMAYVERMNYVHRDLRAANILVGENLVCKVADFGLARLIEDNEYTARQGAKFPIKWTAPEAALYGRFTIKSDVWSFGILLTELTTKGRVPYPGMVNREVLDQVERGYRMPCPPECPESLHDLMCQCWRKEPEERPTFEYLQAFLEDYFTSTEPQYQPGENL
T2 sequence (P00519 whole entry, species assumed): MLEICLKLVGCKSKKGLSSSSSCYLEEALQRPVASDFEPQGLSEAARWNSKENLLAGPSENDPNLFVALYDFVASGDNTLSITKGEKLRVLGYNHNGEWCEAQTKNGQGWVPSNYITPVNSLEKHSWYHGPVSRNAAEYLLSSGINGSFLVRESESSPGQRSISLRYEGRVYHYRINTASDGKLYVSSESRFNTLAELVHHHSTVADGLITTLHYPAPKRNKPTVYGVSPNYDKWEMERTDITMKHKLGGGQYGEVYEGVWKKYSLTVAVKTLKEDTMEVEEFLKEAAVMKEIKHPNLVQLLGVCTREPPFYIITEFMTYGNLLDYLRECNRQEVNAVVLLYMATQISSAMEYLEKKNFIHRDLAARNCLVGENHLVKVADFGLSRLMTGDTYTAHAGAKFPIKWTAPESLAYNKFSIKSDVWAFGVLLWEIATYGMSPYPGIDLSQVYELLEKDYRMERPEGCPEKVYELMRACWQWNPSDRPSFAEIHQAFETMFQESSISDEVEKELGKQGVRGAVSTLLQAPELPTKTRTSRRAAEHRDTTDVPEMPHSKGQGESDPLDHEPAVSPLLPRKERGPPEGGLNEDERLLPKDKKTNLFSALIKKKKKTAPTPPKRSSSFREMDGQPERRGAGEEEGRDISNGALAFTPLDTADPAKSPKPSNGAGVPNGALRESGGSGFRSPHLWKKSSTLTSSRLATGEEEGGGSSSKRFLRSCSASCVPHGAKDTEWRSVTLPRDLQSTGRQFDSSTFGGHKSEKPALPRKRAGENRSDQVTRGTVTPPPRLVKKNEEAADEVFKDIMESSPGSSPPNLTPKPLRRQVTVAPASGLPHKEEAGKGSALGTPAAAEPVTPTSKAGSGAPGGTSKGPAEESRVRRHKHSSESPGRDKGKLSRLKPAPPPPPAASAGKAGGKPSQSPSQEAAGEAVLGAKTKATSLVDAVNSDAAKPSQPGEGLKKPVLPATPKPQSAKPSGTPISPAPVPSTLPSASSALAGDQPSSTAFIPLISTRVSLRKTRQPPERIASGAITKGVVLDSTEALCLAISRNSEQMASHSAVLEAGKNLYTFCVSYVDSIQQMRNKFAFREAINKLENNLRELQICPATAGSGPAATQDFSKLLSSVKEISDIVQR

Turning to `CSc1nc(Nc2cccc(Cl)c2)c2cnn(CC(Cl)c3ccccc3)c2n1` (centres unmarked) [1a, reference compound], the Ki on Src, on Bcr-Abl and at Abl was 600 nM each time. For the same compound, in the series on osteosarcoma, the “Activity in xenograft mouse model of osteosarcoma” value is “active”.
`ClC(Cn1ncc2c(Nc3ccccc3)ncnc21)c1ccc(Br)cc1` (centres unmarked) [1b]: in the series with 32D-T315I CML cells, the “Reduction of tumor volume” value was “more than 50%”.
For `ClC(Cn1ncc2c(Nc3cccc(Br)c3)nc(SCCN3CCOCC3)nc21)c1ccccc1` (centres unmarked) [1c], the Ki at Bcr-Abl was 120 nM. The “Activity in in vivo model of GBM” value with GBM was “showed activity”. In the series on NB, the “Activity in in vivo model of NB” value is “showed activity”.
Turning to `CSc1nc(Nc2ccccc2Cl)c2cnn(CC(Cl)c3ccccc3)c2n1` (centres unmarked) [2a, 1-(2-Chloro-2-phenylethyl)-N-(2-chlorophenyl)-6-(methylthio)-1H-pyrazolo[3,4-d]pyrimidin-4-amine], the “Sensitivity to IR (inhibition of cell viability, MTS)” value in the series with U251 cells [1] and with T98G cells [10] was “increases the sensitivity to IR” each time. Besides, the inhibition at 10 µM on Src worked out at 90%; against Abl, 72%; against Fyn, 90.7%. For the same compound, the Ki on Src is 423 ± 93 nM; at Abl, 450 ± 290 nM; at Fyn, 419 ± 75 nM. Moreover, the “Cell viability (MTS)” value in the series on U251 cells [2] and with T98G cells [7] was “significantly impaired cell viability” throughout. For the same compound, in the series on GBMSC83 cells [3], the “Percentage of cell death after IR (AnnexinV-PI)” value was “significantly increased the percentage of cell death”. Besides, the “Src phosphorylation on Tyr416 (pY416-Src)” value in series [4] is reported as “reduction in Src phosphorylation on Tyr416”. Moreover, the “Phosphorylation of Src on Tyr416” value in series [5] is on record as “significant reduction in phosphorylation of Src on Tyr416”. In addition, the “Colony formation (cell growth and proliferation)” value in the series on U251 cells [6] was “impaired cell growth and proliferation in a dose-dependent manner”; in the series with T98G cells [9] it was “impaired cell growth and proliferation in a dose-dependent manner”. For the same compound, in the series on GBMSC83 cells [8], the Mean neurosphere diameter entry is on record as “overall reduced diameter of the spheres”. Also, the “Number of cells per sphere” value in the series with GBMSC83 cells [8] is listed as “reduced average number of cells per sphere”.
Take `CSc1nc(Nc2ccccc2)c2cnn(CC(Cl)c3ccc(F)cc3)c2n1` (centres unmarked) [2p, 1-(2-Chloro-2-(4-fluorophenyl)ethyl)-6-(methylthio)-N-phenyl-1H-pyrazolo[3,4-d]pyrimidin-4-amine]: the melting point was 227 to 230 °C. Also, on Src, the inhibition at 1 µM was found to be 14%, the inhibition at 10 µM worked out at 55% and the Ki was 14400 ± 4400 nM. In addition, testing at 10 µM against Abl gave an inhibition of 12%. In addition, on Fyn, the inhibition at 1 µM is 15%; the inhibition at 10 µM was 60%; the affinity, expressed as Ki, was 2680 ± 370 nM.
As for `Cc1nc(Nc2ccccc2)c2cnn(CC(Cl)c3ccc(Cl)cc3)c2n1` (centres unmarked) [2q, 1-(2-Chloro-2-(4-chlorophenyl)ethyl)-6-methyl-N-phenyl-1H-pyrazolo[3,4-d]pyrimidin-4-amine], the melting point lay within 202 to 203 °C. Moreover, on Src, the inhibition at 1 µM was found to be 29%, 10 µM produced 48% inhibition and the Ki was 16500 ± 4000 nM. At Abl (1 µM), 1 µM produced 20% inhibition. The compound also returned an inhibition at 10 µM at Abl of 25%. Also, on Fyn, the inhibition at 1 µM was found to be 24%, at 10 µM the inhibition was 78% and the affinity corresponds to a Ki of 2070 ± 1100 nM.
As to `Cc1nc(Nc2ncc(C(=O)Nc3c(C)cccc3Cl)s2)cc(N2CCN(CCO)CC2)n1` [dasatinib, reference compound], the “Percentage of cell death after IR (AnnexinV-PI)” value in the series with GBMSC83 cells [3] is listed as “significantly increased the percentage of cell death”. Also, the “Colony formation (cell growth and proliferation)” value was “impaired cell growth and proliferation in a dose-dependent manner” with U251 cells [6]; “impaired cell growth and proliferation in a dose-dependent manner” in the series with T98G cells [9]. In the series with GBMSC83 cells [8], the Mean neurosphere diameter entry was “overall reduced diameter of the spheres”. The “Number of cells per sphere” value with GBMSC83 cells [8] was “reduced average number of cells per sphere”.
